Results taken from ChEMBL document CHEMBL1129800, “Cycloalkylpyranones and cycloalkyldihydropyrones as HIV protease inhibitors: exploring the impact of ring size on structure-activity relationships” (J Med Chem, 1996).
pEC50, pKi: −log10 of the molar value.

Key:
H9 [1] = assay: Compound at 3 uM was tested for antiviral activity against HIV-1-infected H-9 cells; format: functional; conditions: Homo sapiens
[2] = target: Human immunodeficiency virus type 1 protease (Human immunodeficiency virus 1, UniProt Q72874); assay: Binding affinity towards HIV protease was determined
H9 [3] = assay: Effective dose for antiviral activity against HIV-1-infected H-9 cells; format: functional; conditions: Homo sapiens, read-out: ED50 (the source's name)

SMILES | inhibition at 3 µM (H9 [1]) [%] | pKi [2] | pEC50 (H9 [3])
CCC(C1=C(O)OC2CCCCC2C1=O)c1cccc(NS(=O)(=O)c2ccc(C#N)cc2)c1 (stereo unspecified) | < 10 | 7.82 | –
CCC(c1ccccc1)c1c(O)c2c(oc1=O)CCCCCCC2 (stereo unspecified) | – | < 5.70 | –
CCC(C1=C(O)OC2CCCC2C1=O)c1ccccc1 (stereo unspecified) | – | < 5.70 | –
CCC(C1=C(O)C2CCCCC2OC1=O)c1cccc(NS(=O)(=O)c2ccc(C#N)cn2)c1 (stereo unspecified) | – | 10.30 | 6.02
CCC(c1ccccc1)c1c(O)c2c(oc1=O)CCC2 (stereo unspecified) | – | 6.15 | –
CC(C)(C)C(C1=C(O)OC2CCCCCCC2C1=O)c1cccc(NS(=O)(=O)c2ccc(C#N)cc2)c1 (stereo unspecified) | – | 9.70 | 5.60
CCC(C1=C(O)OC2CCCCC2C1=O)c1ccccc1 (stereo unspecified) | – | 6.17 | –
CCC(c1cccc(NS(=O)(=O)c2ccc(C#N)cn2)c1)c1c(O)c2c(oc1=O)CCC2 (stereo unspecified) | – | 10.12 | 5.07
CCC(C1=C(O)OC2CCCCCC2C1=O)c1ccccc1 (stereo unspecified) | – | < 5.92 | –
CCC(C1=C(O)OC2CCCCCCC2C1=O)c1ccccc1 (stereo unspecified) | – | 5.92 | –
CCC(c1ccccc1)c1c(O)c2c(oc1=O)CCCC2 (stereo unspecified) | – | 5.96 | –
CCC(c1ccccc1)c1c(O)c2ccccc2oc1=O (stereo unspecified) [PHENPROCOUMON] | – | 6.10 | –
